Source: PMC12730060, “Design, Synthesis, and Antimalarial Evaluation of New Spiroacridine Derivatives” (Antibiotics, 2025)
Read-outs that look alike come from different tables or passages of the source.

Legend:
P. falciparum 3D7-GFP = assay: Screening at fixed concentration against unsynchronized asexual blood stages, flow cytometry (GFP); assay type: cell-based; settings: Plasmodium falciparum, read-out: Inhibition (%) 10 μΜ
Protocol: In order to assess the antiplasmodial activity of the compounds, a screening with fixed concentrations at 10 μM was performed against unsynchronized cultures of the asexual blood stages of P. falciparum 3D7HT-GFP (hereafter referred to as 3D7-GFP). […] The JR intermediates were also evaluated in this assay in order to assess the relevance of the spiroacridine scaffold.
(§1) Firstly, to prepare the samples for in vitro assays, each compound was dissolved in DMSO (Sigma-Aldrich®, Merck, Darmstadt, Germany), obtaining a solution of 5 mM, from which two other solutions, at 100 μM and 10 μΜ were prepared through dilution with RPMI-1640 medium (Invitrogen™, Carlsbad, CA, USA), supplemented with AlbuMAXII (Invitrogen™, Carlsbad, CA, USA). In parallel, the parasite cultures used in the in vitro assays include the following P. falciparum strains: 3D7-GFP (MRA-1029, MR4, ATCC®, Manassas, VA, USA, chloroquine-sensitive, expressing Green Fluorescent Protein), Dd2 (MRA-150, ATCC®, Manassas, Virgínia, chloroquine-resistant), and IPC5202 (MRA-1240, ATCC®, Manassas, VA, USA, artemisinin-resistant). These cultures were obtained through BEI Resources, NIAID, NIH (MR4, ATCC®, Manassas, VA, USA), contributed by Andrew M. Talman, Robert E. Sinden, David Walliker, and Didier Ménard. The parasites were cultivated with 5% hematocrit at 37 °C and an atmosphere enriched with 5% of CO2 [54].
Then, to assess the antiplasmodial activity of the compounds, a screening assay was initially performed against the P. falciparum 3D7-GFP strain. For this, unsynchronized cultures were incubated in a 96-well flat-bottom plate at 1.2% hematocrit and 1.0% parasitemia, in the presence and absence of 1 μM and 10 μM of each compound, for 72 h at 37 °C and 5% CO2. […] Parasite growth was determined by flow cytometry (CytoFLEX, Beckman Coulter Life Sciences, Indianapolis, IN, USA) with a 96-well plate reader, using Fl-1 with an excitation wavelength of 488 nm for GFP detection. The flow cytometry data were analyzed with FlowJo v10 software (FlowJo LLC, Ashland, OR, USA) to calculate the percentage inhibition of compounds.

P. falciparum 3D7 = settings: read-out: potency against P. falciparum 3D7; cited from earlier work
[1] = system: P. falciparum Dd2 (chloroquine-resistant); assay: microbe, parasite or virus in culture; assay type: cell-based; settings: Plasmodium falciparum, DD2, 72 h, read-out: IC50 (μM) Dd2
Protocol: as §1, with “In parallel, the parasite cultures used in the in vitro assays include the following P. falciparum strains: 3D7-GFP (MRA-1029, MR4, ATCC®, Manassas, VA, USA, chloroquine-sensitive, expressing Green Fluorescent Protein), Dd2 (MRA-150, ATCC®, Manassas, Virgínia, chloroquine-resistant), and IPC5202 (MRA-1240, ATCC®, Manassas, VA, USA, artemisinin-resistant).” left out
(§2) In order to accomplish this, unsynchronized cultures of 3D7-GFP, Dd2, and MRA-1240 were incubated at 1.2% hematocrit and 1.0% parasitemia with serial three-fold dilutions of the compounds, ranging from 10,000 nM to 0.17 nM, in 96-well flat-bottom plates for 72 h at 37 °C and 5% CO2. Parasite growth was quantified by flow cytometry (CytoFLEX, Beckman Coulter Life Sciences, Indianapolis, IN, USA) using GFP detection in a 96-well plate reader (Fl-1 channel) for the 3D7-GFP strain. The others (Dd2 and MRA-1240) were stained with SYBR Green I (20×), which is also detected at 488 nm. Data analysis was performed with FlowJo v10 software (FlowJo LLC, Ashland, OR, USA), and the half-maximal inhibitory concentrations (IC50) were calculated using GraphPad Prism 5 (trial version), with mean IC50 values obtained from at least two independent experiments, each conducted in triplicate.
(§3) All statistical analyses and graphical representations were performed using the GraphPad Prism 8.0 software package. Dose–response curves were generated by fitting the data to a nonlinear regression model [log(inhibitor) vs. response—variable slope]. […] The IC50 values were obtained from the fitted curves. Each experiment was carried out in triplicate and repeated independently, and results were expressed as mean ± standard deviation.

[2] = system: P. falciparum MRA-1240 (artemisinin-resistant); assay: microbe, parasite or virus in culture; assay type: cell-based; settings: Plasmodium falciparum, 72 h, read-out: IC50 (μM) MRA-1240
Protocol: as §1, with “In parallel, the parasite cultures used in the in vitro assays include the following P. falciparum strains: 3D7-GFP (MRA-1029, MR4, ATCC®, Manassas, VA, USA, chloroquine-sensitive, expressing Green Fluorescent Protein), Dd2 (MRA-150, ATCC®, Manassas, Virgínia, chloroquine-resistant), and IPC5202 (MRA-1240, ATCC®, Manassas, VA, USA, artemisinin-resistant).” left out
as §2, §3

[3] = system: P. falciparum 3D7-GFP (chloroquine-sensitive); assay: IC50 determination against asexual blood stages, flow cytometry (GFP); assay type: cell-based; settings: Plasmodium falciparum, 3D7, 72 h, read-out: IC50 (μM) 3D7-GFP
Protocol: as §1, with “In parallel, the parasite cultures used in the in vitro assays include the following P. falciparum strains: 3D7-GFP (MRA-1029, MR4, ATCC®, Manassas, VA, USA, chloroquine-sensitive, expressing Green Fluorescent Protein), Dd2 (MRA-150, ATCC®, Manassas, Virgínia, chloroquine-resistant), and IPC5202 (MRA-1240, ATCC®, Manassas, VA, USA, artemisinin-resistant).” left out
as §2, §3

[4] = system: monkey kidney cells (Vero E6); assay: Cytotoxicity, MTT assay; assay type: cell-based; settings: for IC50: Primates, read-out: IC50 (μM) Vero E6
Protocol: In the following stages, to assess the selectivity of compounds against P. falciparum over mammalian cells, the cytotoxicity against monkey kidney cells (Vero E6) was determined through MTT assay after 72h of treatment. Also, the selectivity index (SI) of compounds was calculated by the ratio between a compound’s cytotoxicity against Vero E6 cells and its antiplasmodial activity (SI = Vero E6 IC50/P. falciparum IC50).
For this, monkey kidney cells (Vero E6) were seeded at a density of 5 × 10^3 cells/mL in 96-well plates and allowed to adhere for 6 h. Vero E6 cell line was obtained from the Cell Bank of Rio de Janeiro and cultured in DMEM media (Dulbecco’s Modified Eagle Medium) plus 10% inactivated fetal bovine serum (FBS) and 1% penicillin–streptomycin. Treatments were performed by adding 100 μL of medium solutions with test drugs, resulting in concentrations ranging from 12.5 to 100 µM (DMSO 1%, v/v). After 72 h of incubation at 37 °C and under 5% of CO2, the cultures were incubated with MTT at 0.5 mg/mL for 2 h. After this, the formazan crystals were dried in room temperature and dissolved in DMSO. Cell viability was determined by measuring the absorbance at 570 nm (Absorbance microplate reader EL800, BioTek, Winooski, VT, USA), and control wells containing DMSO at 1% were considered as 100% cell viability.

erythrocytes = system: erythrocytes; parameters: method as in PMID 40572185; settings: no cytotoxicity against erythrocytes up to this concentration; cited from earlier work
P. falciparum W2 = system: P. falciparum W2; parameters: method as in PMID 30366283; settings: read-out: IC50 against P. falciparum W2; cited from earlier work
mice = system: mice; parameters: method as in PMID 31861795; settings: acute toxicity, OECD guidelines; cited from earlier work
[5] = Vero C1008, 72 h, MTT, 12.5 to 100 µM

| Structure (SMILES) | inhibition at 10 µM (P. falciparum 3D7-GFP; 3D7, 72 h) [%] | IC50 [1] [µM] | IC50 [2] [µM] | IC50 [3] [µM] | also measured |
| --- | --- | --- | --- | --- | --- |
| N#CCC(=O)N/N=C/c1ccnc2ccccc12 [JR-18] | 14.7 ± 7.2 | – | – | – | – |
| N#CCC(=O)N/N=C/c1ccccc1 [JR-09] | 14.8 ± 0.4 | – | – | – | – |
| CC(=O)N(O)CCCCCNC(=O)CCC(=O)N(O)CCCCCNC(=O)CCC(=O)N(O)CCCCCN [deferoxamine] | – | – | – | – | IC50 (P. falciparum 3D7): 27.6 µM |
| N#CC1=CC2(c3ccccc3Nc3ccccc32)N(/N=C/c2ccccc2)C1=O [AMTAC-01] | – | 1.37 ± 0.46 | 1.66 ± 0.08 | 2.11 ± 0.6 | IC50 [4, 5]: > 100 µM; half-maximal hemolytic concentration (HC50) (erythrocytes): > 400 µM |
| COc1cc(/C=N/N2C(=O)C(C#N)=CC23c2ccccc2Nc2ccccc23)cc(OC)c1O [AMTAC-24, (E)-1′-((4-hydroxy-3,5-dimethoxybenzylidene)amino)-5′-oxo-1′,5′-dihydro-10H-spiro[acridine-9,2′-pyrrole]-4′-carbonitrile] | 66.8 ± 10.8 | – | – | – | – |
| N#CC1=CC2(c3ccccc3Nc3ccccc32)N(/N=C/c2ccnc3ccccc23)C1=O [AMTAC-21, (E)-5′-oxo-1′-((quinolin-4-ylmethylene)amino)-1′,5′-dihydro-10H-spiro[acridine-9,2′-pyrrole]-4′-carbonitrile] | – | 3.99 ± 0.23 | 4.07 ± 0.27 | 3.78 ± 0.18 | IC50 [4, 5]: > 100 µM |
| COc1cc(/C=N/NC(=O)CC#N)cc(OC)c1O [JR-28, (E)-2-cyano-N’-(4-hydroxy-3,5-dimethoxybenzylidene)acetohydrazide] | 5.5 ± 11.5 | – | – | – | – |
| COc1cc(/C=N/NC(=O)CC#N)cc(OC)c1OC [JR-10, (E)-2-cyano-N’-(3,4,5-trimethoxybenzylidene)acetohydrazide] | 12.6 ± 1.4 | – | – | – | – |
| COc1cc(NC(C)CCCN)c2ncccc2c1 (stereo not drawn) [primaquine] | – | – | – | – | IC50 (P. falciparum 3D7): 9.4 µM; IC50 (P. falciparum W2): 1700 nM |
| N#CCC(=O)N/N=C/c1c[nH]c2ccccc12 [JR-19] | 16.8 ± 5 | – | – | – | – |
| COc1ccc(/C=N/NC(=O)CC#N)cc1 [JR-11, (E)-2-cyano-N’-(4-methoxybenzylidene)acetohydrazide] | 13.4 ± 1.4 | – | – | – | – |
| CCN(CC)CCCC(C)Nc1ccnc2cc(Cl)ccc12 (stereo not drawn) [CQ, chloroquine, reference compound] | – | 0.26 ± 0.09 | 0.19 ± 0.07 | 0.02 ± 0.01 | inhibition at 10 µM (P. falciparum 3D7-GFP; 72 h): 94.34 ± 0.54%; IC50 ([4]; Vero C1008, 72 h): > 100 µM |
| COc1ccc(/C=N/N2C(=O)C(C#N)=CC23c2ccccc2Nc2ccccc23)cc1 [AMTAC-02] | – | 3.12 ± 0.34 | 4.01 ± 0.17 | 3.19 ± 0.49 | IC50 [4, 5]: > 100 µM; half-maximal hemolytic concentration (HC50) (erythrocytes): > 400 µM |
| N#CC1=CC2(c3ccccc3Nc3ccccc32)N(/N=C/c2ccc(Cl)cc2)C1=O [AMTAC-06] | 62.4 ± 8.9 | – | – | – | – |
| COc1cc(C)c2c(Oc3cccc(C(F)(F)F)c3)c(OC)cc(NC(C)CCCN)c2n1 (stereo not drawn) [tafenoquine] | – | – | – | – | IC50 (P. falciparum 3D7): 1.7 µM |
| COc1cc(/C=N/N2C(=O)C(C#N)=CC23c2ccccc2Nc2ccccc23)cc(OC)c1OC [AMTAC-17] | – | 3.29 ± 0.38 | 4.09 ± 0.05 | 3.28 ± 0.49 | estimated Median Lethal Dose (LD50) (mice): greater than 5000 mg/kg; IC50 [4, 5]: > 100 µM |
| N#CCC(=O)N/N=C/c1ccc(Cl)cc1 [JR-06, (E)-N’-(4-chlorobenzylidene)-2-cyanoacetohydrazide] | 12.4 ± 1 | – | – | – | – |
| N#CC1=CC2(c3ccccc3Nc3ccccc32)N(/N=C/c2c[nH]c3ccccc23)C1=O [AMTAC-22, (E)-1′-(((1H-indol-3-yl)methylene)amino)-5′-oxo-1′,5′-dihydro-10H-spiro[acridine-9,2′-pyrrole]-4′-carbonitrile] | – | 2.34 ± 0.11 | 2.88 ± 0.3 | 3.01 ± 0.52 | IC50 [4, 5]: > 100 µM; reduction in cell viability ([4]; at all concentrations evaluated (12.5–100 μM), 72 h): 15–20% |
